This is an account of results in US20080009025A1, “PROTEIN KINASE REGULATION” (priority 1999, published 2008).

The test system of assay [1] is PDK1. The assay is described as follows: Activation of AGC kinase substrates by PDK1 (Crosstide assay). The assay is classed as biochemical, human. The conditions noted are these: for inhibition of the activation of S6K1-T2[T412E] and SGK1[T422D] by PDK1 PIF pocket mutants: PDK1[K115A], [I119A], [Q150A], [L155A]. The protocol: FIG. 20. Effect of PIFtide on the activation of S6K1 and SGK1 by PDK1 PIF pocket mutants (155A, 115A, 119A, 150A). GST-PDK1, GST-PDK1 L155E, 155A, 115A, 119A and 150A were tested for their ability to activate His-S6K1 412E and GST-SGK1 422D. The phosphorylation and activation of substrates was performed as described in FIG. 17. When PIFtide was included in the reaction, it was pre-incubated on ice for ˜15 min until the reaction was initiated with the addition of ATP-Mg.
Activation of AGC kinase PDK1 substrates. Phosphorylation reactions were carried out as above except that non-radioactive ATP replaced [γ-^32P]ATP. Following 10 min at 30° C., cocktail (30 μl) containing 50 mM Tris-HCl pH 7.5, 0.1% (by vol) 2-mercaptoethanol, 10 mM magnesium chloride, […], 0.5 μM microcystin-LR and 100 μM peptide substrate crosstide (GRPRTSSFAEG) and [γ-^32P]ATP (˜600 c.p.m./pmol). Reactions were stopped by the addition of 25 μl of 0.2 M EDTA pH 8.0, spotted onto P81 phosphocellulose paper, washed and analysed as described for the assay of MAP kinase. The amount of PDK1 was in the assay was varied so that the assay was in the linear range. One unit of activity is deficed as phosphorylation 1 nmol of substrate in 1 min.

Assay [2] deals with T1, PDK1 (Homo sapiens, UniProt O15530).
T1 sequence (O15530 1-556): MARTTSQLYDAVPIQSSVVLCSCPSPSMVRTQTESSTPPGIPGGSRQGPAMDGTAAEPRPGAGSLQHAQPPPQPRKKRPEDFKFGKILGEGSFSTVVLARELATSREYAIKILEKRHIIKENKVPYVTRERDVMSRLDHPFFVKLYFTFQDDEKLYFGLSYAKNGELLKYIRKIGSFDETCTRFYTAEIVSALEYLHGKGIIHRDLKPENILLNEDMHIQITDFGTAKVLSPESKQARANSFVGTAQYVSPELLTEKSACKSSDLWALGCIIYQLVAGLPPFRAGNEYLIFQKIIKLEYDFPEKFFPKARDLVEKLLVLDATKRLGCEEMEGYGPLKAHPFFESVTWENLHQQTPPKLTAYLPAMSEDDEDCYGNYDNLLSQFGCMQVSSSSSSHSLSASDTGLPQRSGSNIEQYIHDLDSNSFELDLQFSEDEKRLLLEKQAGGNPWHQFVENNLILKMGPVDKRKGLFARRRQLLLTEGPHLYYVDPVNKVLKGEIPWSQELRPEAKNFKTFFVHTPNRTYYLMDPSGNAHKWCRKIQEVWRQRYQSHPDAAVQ
The assay can be described thus: Phosphorylation of p70 S6K at Thr412 by PDK1 in vitro (T412-P immunoblot). The assay is classed as biochemical. Further details: made in house; host or cells: 293 cells or E. coli. The conditions noted are these: peptide 4 μM. As for the experimental part:
FIG. 2. PDK1 phosphorylates p70 S6K at Thr412 in vitro and this is inhibited by PIF. 0.5 μg of either wild type GST-p70 S6K-T2 (wt), T252A-GST-p70 S6K-T2 (252A) or T412A-GST-p70 S6K-T2 (412A) were incubated for 90 min at 30° C. with MgATP in the presence or absence of wild type (wt) or kinase-dead (kd) GST-PDK1 expressed in either 293 cells or bacteria in the presence (+) or absence (−) of the wild type PIF peptides (4 μM) in a final volume of 20 μl. The reactions were terminated by making the solutions 1% in SDS, the samples were subjected to SDS-polyacylamide gel electrophoresis, and the phosphorylation of p70 S6K at Thr412 was assessed by immunoblotting with the T-412P antibody. Similar results were obtained in three separate experiments.
Immunoblotting for dephosphorylated and Thr412-phosphorylated p70 S6 kinase. Cell lysates were made 1% SDS and the indicated amounts of protein were subjected to SDS/Polyacrylamide gel electrophoresis, subsequently transferred to nitrocellulose and immunoblotted using the indicated monoclonal antibody or the T412-P phospho-specific antibody (0.4 μg/ml) in 50 mM Tris/HCl pH7.5, 0.15M NaCl, 0.5% (by vol) Tween and 10% (by mass) skimmed milk. Detection was performed using the enhanced chemiluminescence reagent (Amersham Pharmacia Biotech).
In general terms: In western blotting, separated proteins are transferred to a membrane and probed.

Each structure is given as a SMILES string. Where a SMILES comes first, the peptide text is derived from it. Bounds are passed on as bounds.

On to `CC[C@H](C)[C@H](NC(=O)[C@H](Cc1ccc(O)cc1)NC(=O)[C@H](CC(=O)O)NC(=O)[C@H](Cc1ccccc1)NC(=O)[C@H](CC(=O)O)NC(=O)[C@H](CCCNC(=N)N)NC(=O)[C@H](Cc1ccccc1)NC(=O)[C@H](CCSC)NC(=O)[C@H](CCC(=O)O)NC(=O)[C@H](CCC(N)=O)NC(=O)[C@H](CCC(=O)O)NC(=O)[C@H](CCC(=O)O)NC(=O)[C@H](CCC(=O)O)NC(=O)[C@H](CO)NC(=O)[C@H](CC(C)C)NC(=O)[C@@H](NC(=O)[C@H](CCCNC(=N)N)NC(=O)[C@@H]1CCCN1C(=O)[C@H](CCC(=O)O)NC(=O)[C@@H](N)CCCNC(=N)N)[C@@H](C)CC)C(=O)N[C@@H](C)C(=O)N[C@@H](CC(=O)O)C(=O)N[C@@H](Cc1c[nH]c2ccccc12)C(=O)N[C@@H](CS)C(=O)O` [PIFtide] (H-REPRILSEEEQEMFRDFDYIADWC-OH; N-terminus and C-terminus assumed), for which, in the assay on PDK1 [1] (2 μM PIFtide), the “inhibition of the activation of S6K1[T412E] by wild type PDK1” value is more than 20 fold; the “inhibition of the activation of S6K1-T2[T412E] and SGK1[T422D] by PDK1 PIF pocket mutants” value is approximately 50%. Also, in the assay on PDK1 [1] (35 μM PIFtide), the “inhibition of the activation of S6K1-T2[T412E] and SGK1[T422D] by PDK1 PIF pocket mutants” value is on record as “over 95%”. In addition, in the assay with PDK1 [1] (in the presence of PIFtide), the “PDK1's ability to phosphorylate and activate SGK1, ΔPH-PKBα, S6K1[T412E], SGK1[T422D] and ΔPH-PKBα[S473D]” value is listed as “markedly inhibited”. Further, the “effect on phosphorylation of p70 S6K at Thr412 by PDK1” value at PDK1 [2] was “prevented”.
